Columns and labels:
[1] = system: recurrent small cell lung cancer (SCLC); experiment: Clinical trial of nivolumab alone or with ipilimumab in SCLC, exploratory TMB analysis; type: in vivo, human
Description: Subjects were selects who had previously been diagnosed with SCLC, and who had previously received at least one prior platinum-containing regimen (FIG. 23).
The primary objective was to measure the objective response rate (ORR) by per RECIST v1.1. Secondary objectives included monitoring safety, overall survival (OS), progression free survival (PFS), and duration of response (DOR). Prespecified exploratory objectives included biomarker analysis and health status using the EQ-5D instrument.
TMB was determined by whole exome sequencing, using an Illumina HiSeq 2500 using 2×100-bp paired-end reads, and calculated as the total number of nonsynonymous missense mutations in the tumor. For exploratory analyses, patients were divided into 3 subgroups based on TMB tertile.

[2] = system: metastatic or surgically unresectable urothelial carcinoma (UC); experiment: Single-arm phase II study of nivolumab (CheckMate 275), TMB analysis; type: in vivo, human
Experimental: Tumor DNA from pretreatment archival tumor tissue and matched whole blood samples was profiled by whole exome sequencing. TMB was defined as the total number of missense somatic mutations per tumor, and was evaluated as a continuous variable and by tertiles (missense count: high 167, medium 85-166, low <85). Cox models were used to explore the association between TMB and progression-free survival (PFS) and overall survival (OS); and logistic regression for objective response rate (ORR). Tumor PD-ligand 1 (PD-L1) expression was assessed by Dako PD-L1 immunohistochemistry 28-8 assay and was categorized as <1%.

[3] = system: stage IV or recurrent NSCLC; experiment: Multi-part phase 3 study of first-line nivolumab plus ipilimumab versus chemotherapy: efficacy; type: in vivo, human
Description: Patients had chemotherapy-naive, stage IV or recurrent NSCLC.
Adult patients with PD-L1-histologically confirmed squamous or nonsquamous stage IV/recurrent NSCLC and Eastern Cooperative Oncology Group (ECOG) performance status (Oken M. M., et al. Am J Clin Oncol 5:649-55 (1982)) of 0 or 1 who had received no prior systemic anticancer therapy as primary therapy for advanced or metastatic disease were eligible for the study. All patients underwent imaging to screen for brain metastases. Patients with known EGFR mutations or ALK translocations sensitive to targeted therapy, an autoimmune disease, or untreated central nervous system metastases were excluded.
All treatments continued until disease progression, unacceptable toxicity, or completion per protocol (up to 2 years for immunotherapy). Crossover between treatment arms within the study was not permitted.
Part 1 of this study had two co-primary endpoints.
Hazard ratios of PFS with associated two-sided confidence intervals were estimated using an unstratified Cox proportional hazard model, with treatment group as a single covariate. A multivariate analysis was prespecified in patients with TMB≥10 mutations/Mb to assess the influence of known prognostic baseline factors on PFS. […] Survival curves were estimated using Kaplan-Meier methodology.

NSCLC = conditions: cited from earlier work
PD-1 = target: T1, PD-1 (Homo sapiens, UniProt Q15116); conditions: across all doses, 0.3 mg/kg to 10 mg/kg; cited from earlier work
T1 construct: PD-1 occupancy appears to be dose-independent in this dose range
T1 sequence (Q15116 25-288): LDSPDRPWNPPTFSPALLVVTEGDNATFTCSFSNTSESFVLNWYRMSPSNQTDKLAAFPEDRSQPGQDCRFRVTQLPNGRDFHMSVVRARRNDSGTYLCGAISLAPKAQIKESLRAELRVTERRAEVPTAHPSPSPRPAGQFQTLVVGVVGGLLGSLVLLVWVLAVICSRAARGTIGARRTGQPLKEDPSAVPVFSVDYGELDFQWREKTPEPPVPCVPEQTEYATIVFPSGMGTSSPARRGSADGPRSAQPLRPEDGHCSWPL

[4] = monotherapy, every two weeks; cited from earlier work
[5] = 10 patients with ≥5% PD-L1 expression, monotherapy cohort

Substance: Nivolumab
- ORR ([1]; TMB-evaluable patients): 11.3%
- ORR ([1]; high TMB): about 21.3%
- OS at 1 year ([1]; high TMB): 35.2%
- PFS at 1 year ([1]; high TMB): 21.2%
- average PFS ([1]; high TMB): about 1.4%
- median OS ([1]; high TMB): about 5.4%
- patients with overall survival over 2 years ([1]; initial results of the SCLC trial): 14%
- ORR ([1]; low TMB): about 4.8%
- OS at 1 year ([1]; low TMB): 22.1%
- average PFS ([1]; low TMB): about 1.3%
- median OS ([1]; low TMB): about 3.1%
- ORR ([1]; medium TMB): about 6.8%
- OS at 1 year ([1]; medium TMB): about 26.0%
- PFS at 1 year ([1]; medium TMB): 3.15%
- average PFS ([1]; medium TMB): about 1.3%
- median OS ([1]; medium TMB): about 3.9%
- OS, median ([2]; All Pts): 8.57 months
- PFS, median ([2]; All Pts): 2.00 month
- ORR ([2]; All Pts (N 270)): 20.0%
- ORR ([2]; All Pts, PD-L1 1%): 25.0%
- OS, median ([2]; All Pts, PD-L1 1%): 11.63 months
- PFS, median ([2]; All Pts, PD-L1 1%): 3.53 month
- ORR ([2]; All Pts, PD-L1 <1%): 15.8%
- OS, median ([2]; All Pts, PD-L1 <1%): 5.95 months
- PFS, median ([2]; All Pts, PD-L1 <1%): 1.87 month
- ORR ([2]; TMB High): 31.9%
- OS, median ([2]; TMB High): 11.63 months
- PFS, median ([2]; TMB High): 3.02 month
- ORR ([2]; TMB High, PD-L1 1%): 33.3%
- OS, median ([2]; TMB High, PD-L1 1%): 10.60 months
- PFS, median ([2]; TMB High, PD-L1 1%): 3.52 month
- ORR ([2]; TMB High, PD-L1 <1%): 30.4%
- PFS, median ([2]; TMB High, PD-L1 <1%): 3.02 month
- ORR ([2]; TMB Low): 10.9%
- OS, median ([2]; TMB Low): 5.72 months
- PFS, median ([2]; TMB Low): 1.91 month
- ORR ([2]; TMB Low, PD-L1 1%): 23.8%
- OS, median ([2]; TMB Low, PD-L1 1%): 8.57 months
- PFS, median ([2]; TMB Low, PD-L1 1%): 3.12 month
- ORR ([2]; TMB Low, PD-L1 <1%): 0%
- OS, median ([2]; TMB Low, PD-L1 <1%): 4.96 months
- PFS, median ([2]; TMB Low, PD-L1 <1%): 1.77 month
- ORR ([2]; TMB Medium): 17.4%
- OS, median ([2]; TMB Medium): 9.66 months
- PFS, median ([2]; TMB Medium): 1.87 month
- ORR ([2]; TMB Medium, PD-L1 1%): 12.0%
- OS, median ([2]; TMB Medium, PD-L1 1%): 11.30 months
- PFS, median ([2]; TMB Medium, PD-L1 1%): 1.94 month
- ORR ([2]; TMB Medium, PD-L1 <1%): 23.8%
- OS, median ([2]; TMB Medium, PD-L1 <1%): 4.53 months
- PFS, median ([2]; TMB Medium, PD-L1 <1%): 1.77 month
- OS, median ([2]; TMB Subgroup): 7.23 months
- PFS, median ([2]; TMB Subgroup): 2.00 month
- ORR ([2]; TMB Subgroup (N 139)): 20.1%
- ORR ([2]; TMB Subgroup, PD-L1 1%): 22.9%
- OS, median ([2]; TMB Subgroup, PD-L1 1%): 10.28 months
- PFS, median ([2]; TMB Subgroup, PD-L1 1%): 2.30 month
- ORR ([2]; TMB Subgroup, PD-L1 <1%): 17.4%
- OS, median ([2]; TMB Subgroup, PD-L1 <1%): 5.68 months
- PFS, median ([2]; TMB Subgroup, PD-L1 <1%): 1.87 month
- median PFS ([3]; TMB≥10 mutations/Mb and ≥1% PD-L1 expression): 4.2 months
- median PFS ([3]; TMB≥13 mutations/Mb and ≥1% PD-L1 expression): 4.2 months
- PFS rate at 24 weeks (NSCLC; [5]): 70%
- median PFS (NSCLC; [5]): 10.6 months
- objective response rate (ORR) (NSCLC; [5]): 50%
- ORR (NSCLC; patients with ≥1% PD-L1 expression): 28%
- mean PD-1 occupancy rate (PD-1): 85%
- mean plateau PD-1 occupancy (PD-1): 72%
- maximum tolerated dose (MTD), not reached up to [4]: > 10 mg/kg
